Drawing on US9902722B2, “Biaryl kinase inhibitors” (BRISTOL-MYERS SQUIBB COMPANY, priority 2014, dated 2018), this text covers IC50 for 23 compounds.

SMILES strings stand for the structures.

In general, IC50 refers to the point on the concentration scale where inhibition reaches its midpoint. High values mean weaker potency, low ones greater potency.

Chain of GST-Xa-hAAK1 (Q2M2I8 whole entry): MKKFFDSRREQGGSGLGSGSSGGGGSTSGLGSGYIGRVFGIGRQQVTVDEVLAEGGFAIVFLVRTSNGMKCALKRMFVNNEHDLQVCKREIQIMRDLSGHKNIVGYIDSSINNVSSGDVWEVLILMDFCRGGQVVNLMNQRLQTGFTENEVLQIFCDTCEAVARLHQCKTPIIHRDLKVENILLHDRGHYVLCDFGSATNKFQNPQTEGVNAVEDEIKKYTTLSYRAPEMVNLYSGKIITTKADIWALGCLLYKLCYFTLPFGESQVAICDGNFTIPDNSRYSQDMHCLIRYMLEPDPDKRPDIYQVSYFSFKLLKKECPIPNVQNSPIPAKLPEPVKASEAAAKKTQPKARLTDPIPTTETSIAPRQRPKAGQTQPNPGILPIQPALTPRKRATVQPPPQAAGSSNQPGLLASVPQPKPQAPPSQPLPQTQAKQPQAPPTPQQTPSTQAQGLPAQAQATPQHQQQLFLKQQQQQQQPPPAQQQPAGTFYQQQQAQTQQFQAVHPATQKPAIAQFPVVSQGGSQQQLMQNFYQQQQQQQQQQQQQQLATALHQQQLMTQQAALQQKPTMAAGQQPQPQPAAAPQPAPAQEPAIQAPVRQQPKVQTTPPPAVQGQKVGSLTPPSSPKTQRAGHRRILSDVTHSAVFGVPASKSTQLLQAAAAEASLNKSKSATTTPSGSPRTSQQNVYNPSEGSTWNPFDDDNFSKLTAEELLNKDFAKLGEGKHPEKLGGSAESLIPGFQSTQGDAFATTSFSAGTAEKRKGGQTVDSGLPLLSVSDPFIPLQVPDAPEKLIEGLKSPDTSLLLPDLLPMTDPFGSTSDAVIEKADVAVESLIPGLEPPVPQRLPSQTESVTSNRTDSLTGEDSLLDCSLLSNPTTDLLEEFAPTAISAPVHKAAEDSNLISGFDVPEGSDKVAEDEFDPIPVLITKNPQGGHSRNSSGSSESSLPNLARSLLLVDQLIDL

This assay concerns the target GST-Xa-hAAK1 (Homo sapiens (Human), UniProt Q2M2I8). In words: AAK1 Kinase Assay.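 Also: each compound tested across an eleven-point concentration series, with IC50 obtained through non-linear regression fitting.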 In kind it is biochemical. Particulars: bacterially expressed GST-Xa-hAAK1 3.5 nM; ATP 22 μM; peptide substrate 1.5 μM; 3 hours at room temperature; Caliper LabChip 3000.
In turn, `COC(=O)Nc1cc(-c2cnc(OC[C@@](C)(N)CC(C)C)c(C(F)(F)F)c2)ccn1` [Example 220, (S)-methyl (6-((2-amino-2,4-dimethylpentyl)oxy)-5-(trifluoromethyl)-[3,4′-bipyridin]-2′-yl)carbamate] came in with an IC50 of 0.38 nM.

Compound `COC(=O)Nc1cc(-c2cnc(OC[C@@](C)(N)CC(C)C)nc2)ccn1` [Example 211, (S)-methyl (4-(2-((2-amino-2,4-dimethylpentyl)oxy)pyrimidin-5-yl)pyridin-2-yl)carbamate] had an IC50 of 491 nM. This IC50 is about 1300-fold higher than that of the compound before. For `Cc1nccc(-c2ccc(OC[C@@](C)(N)CC(C)C)c(C(F)F)n2)n1` [Example 139, (S)-1-((2-(difluoromethyl)-6-(2-methylpyrimidin-4-yl)pyridin-3-yl)oxy)-2,4-dimethylpentan-2-amine], the IC50 stood at 0.77 nM. The figure for `Cc1cc(-c2ccc(OC[C@@](C)(N)CC(C)C)c(C#N)c2)c(F)cn1` [Example 105, (S)-2-((2-amino-2,4-dimethylpentyl)oxy)-5-(5-fluoro-2-methylpyridin-4-yl)benzonitrile] is 0.72 nM. As for `CC(C)C[C@](C)(N)COc1cnc(-c2ccnc3ccccc23)cc1Cl` [Example 236, (S)-1-((4-chloro-6-(quinolin-4-yl)pyridin-3-yl)oxy)-2,4-dimethylpentan-2-amine], the figure is 0.98 nM.

`CC(C)C[C@](C)(N)COc1ccc(-c2ccnc(Cl)c2F)nc1C(F)F` [Example 159, (S)-1-((2′-chloro-6-(difluoromethyl)-3′-fluoro-[2,4′-bipyridin]-5-yl)oxy)-2,4-dimethylpentan-2-amine]: inhibition was half-maximal at 1.5 nM (IC50). This IC50 lies about 1.5-fold higher than the previous one. The figure for `CC(C)C[C@](C)(N)COc1cnc(-c2ccnc3ccc(C(F)(F)F)cc23)cc1C(F)F` [Example 133] is 0.92 nM. As for `CC(C)C[C@](C)(N)COc1cnc(-c2ccnc3ccc(OC(F)(F)F)cc23)cc1C(F)F` [Example 134, (S)-1-((4-(difluoromethyl)-6-(6-(trifluoromethoxy)quinolin-4-yl)pyridin-3-yl)oxy)-2,4-dimethylpentan-2-amine], the figure is 4.4 nM; as for `CC(C)C[C@](C)(N)COc1ccc(-c2ccnc3cc(F)cc(F)c23)cc1C(F)(F)F` [Example 72, (S)-1-(4-(5,7-difluoroquinolin-4-yl)-2-(trifluoromethyl)phenoxy)-2,4-dimethylpentan-2-amine], 0.53 nM. The compound `COC(=O)Nc1cc(-c2ccc(OCC(C)(N)CC(C)C)c(Cl)c2)ccn1` (centres unmarked) [Example 29, methyl (4-(4-((2-amino-2,4-dimethylpentyl)oxy)-3-chlorophenyl)pyridin-2-yl)carbamate] yielded an IC50 of 0.67 nM. This IC50 and that of the compound before are within 1.5-fold of each other. As for `Cc1nc(-c2ccnc3cc(F)ccc23)ccc1OC[C@@](C)(N)CC(C)C` [Example 137, (S)-1-((6-(7-fluoroquinolin-4-yl)-2-methylpyridin-3-yl)oxy)-2,4-dimethylpentan-2-amine], the figure is 27 nM; as for `CC(C)C[C@](C)(N)COc1ccc(-c2ccnc3cc(C#N)ccc23)cc1C(F)(F)F` [Example 89, (S)-4-(4-((2-amino-2,4-dimethylpentyl)oxy)-3-(trifluoromethyl)phenyl)quinoline-7-carbonitrile], 0.66 nM; as for `Cc1cc(-c2cc(C)c(OC[C@@](C)(N)CC(C)C)cn2)ccn1` [Example 228, (S)-1-((2′,4-dimethyl-[2,4′-bipyridin]-5-yl)oxy)-2,4-dimethylpentan-2-amine], 22 nM.

In the case of `CC(C)CC(C)(N)COc1c(F)cc(-c2ccnc3ccccc23)cc1Cl` (centres unmarked) [Example 75, 1-(2-chloro-6-fluoro-4-(quinolin-4-yl)phenoxy)-2,4-dimethylpentan-2-amine], inhibition was half-maximal at 34 nM (IC50).

The compound `COc1cc(-c2ccnc(NC(C)=O)c2)ccc1OC[C@@H](N)CC(C)C` [Example 2, (S)—N-(4-(4-((2-amino-4-methylpentyl)oxy)-3-methoxyphenyl)pyridin-2-yl)acetamide] showed an IC50 of 3 nM. The figure for `COC(=O)Nc1cc(-c2cc(C(F)F)c(OC[C@@](N)(CF)CC(C)C)cn2)ccn1` [Example 182, (R)-methyl (5-((2-amino-2-(fluoromethyl)-4-methylpentyl)oxy)-4-(difluoromethyl)-[2,4′-bipyridin]-2′-yl)carbamate] is 8.7 nM. In turn, `COC(=O)Nc1cc(-c2ccc(OC[C@@](N)(CF)CC(C)C)c(C(F)F)n2)ccn1` [Example 180, (R)-methyl (5-((2-amino-2-(fluoromethyl)-4-methylpentyl)oxy)-6-(difluoromethyl)-[2,4′-bipyridin]-2′-yl)carbamate] yielded an IC50 of 24 nM.

`CC(C)C[C@](C)(N)COc1ccc(-c2ccnc3ccc(F)cc23)nc1C(F)F` [Example 127, (S)-1-((2-(difluoromethyl)-6-(6-fluoroquinolin-4-yl)pyridin-3-yl)oxy)-2,4-dimethylpentan-2-amine]: the IC50 amounted to 6.2 nM. Compared with the last compound, the IC50 is about 3.9-fold lower. Compound `CC(C)C[C@](C)(N)COc1ccc(-c2ccnc3cc(F)cc(F)c23)nc1Cl` [Example 135, (S)-1-((2-chloro-6-(5,7-difluoroquinolin-4-yl)pyridin-3-yl)oxy)-2,4-dimethylpentan-2-amine] yielded an IC50 of 3.5 nM. Consider `Cc1cc(-c2ccnc3cc(F)ccc23)cnc1OC[C@@](C)(N)CC(C)C` [Example 76, (S)-1-((5-(7-fluoroquinolin-4-yl)-3-methylpyridin-2-yl)oxy)-2,4-dimethylpentan-2-amine], for which half-maximal inhibition (IC50) was put at 1.7 nM. As for `Cc1cc(-c2ccc(OC[C@@](C)(N)CC(C)C)c(C)c2)ccn1` [Example 90, (S)-2,4-dimethyl-1-(2-methyl-4-(2-methylpyridin-4-yl)phenoxy)pentan-2-amine], the figure is 2.6 nM; as for `CC(C)C[C@](C)(N)COc1ncc(-c2ccnc3cc(F)cc(F)c23)cc1C#N` [Example 77, (S)-2-((2-amino-2,4-dimethylpentyl)oxy)-5-(5,7-difluoroquinolin-4-yl)nicotinonitrile], 0.92 nM; as for `COC(=O)Nc1cc(-c2ccc(OCC(C)(N)CC(C)C)c(C)c2C)ccn1` (centres unmarked) [Example 31, methyl (4-(4-((2-amino-2,4-dimethylpentyl)oxy)-2,3-dimethylphenyl)pyridin-2-yl)carbamate], 4.5 nM.
